These compounds were tested against HSET full length protein (Homo sapiens (Human), UniProt Q9BW19) (assay: HSET ADP-Glo Assay S - 3 μM ATP). Settings: 5 nM HSET, 70 μg/mL microtubule, 80 min at rt, read-out: COMBINED HSET ADP GLO IC50.
Chain of HSET full length protein (Q9BW19 whole entry): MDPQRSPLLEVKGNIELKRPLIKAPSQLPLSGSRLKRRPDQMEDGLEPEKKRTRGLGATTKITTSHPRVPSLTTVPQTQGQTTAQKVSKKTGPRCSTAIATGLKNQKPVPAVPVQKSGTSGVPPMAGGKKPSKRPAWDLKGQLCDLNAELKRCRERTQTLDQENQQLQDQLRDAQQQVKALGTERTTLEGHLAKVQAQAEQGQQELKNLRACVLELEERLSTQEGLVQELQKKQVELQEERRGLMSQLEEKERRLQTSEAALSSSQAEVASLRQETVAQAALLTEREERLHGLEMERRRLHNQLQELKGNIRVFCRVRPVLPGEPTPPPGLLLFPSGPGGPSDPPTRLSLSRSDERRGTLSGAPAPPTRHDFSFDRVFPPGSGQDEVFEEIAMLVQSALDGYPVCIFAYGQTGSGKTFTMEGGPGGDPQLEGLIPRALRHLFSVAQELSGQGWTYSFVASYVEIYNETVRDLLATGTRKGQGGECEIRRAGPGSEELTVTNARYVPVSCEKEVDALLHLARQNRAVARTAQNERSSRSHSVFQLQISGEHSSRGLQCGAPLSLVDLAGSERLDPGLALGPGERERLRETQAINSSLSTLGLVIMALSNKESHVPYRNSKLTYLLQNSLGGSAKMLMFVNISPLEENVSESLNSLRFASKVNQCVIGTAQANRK
Assay type: biochemical
Outline: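 Full-length human HSET (5 nM) with paclitaxel-stabilised bovine brain microtubules (70 μg/mL) in HEPES pH 6.8 buffer was preincubated 10 min with compound. ATP at 3 μM started the reaction, which ran 80 min at rt. ADP formed was measured by ADP-Glo luminescence.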
In the case of `Cc1nc(NC(=O)CCNC(=O)c2cccc(-c3cnn(C)c3)c2)sc1C(=O)OC(C)(C)C` [Example 89, tert-Butyl-4-methyl-2-(3-(3-(1-methyl-1 H-pyrazol-4-yl)benzamido)propanamido)thiazole-5-carboxylate], the IC50 is reported as 391 nM.
For `CCOC(=O)c1sc(NC(=O)CCNC(=O)c2cccc(N3CCOCC3)c2)nc1C` [Example 7, Ethyl 4-methyl-2-(3-(3-morpholinobenzamido)propanamido)thiazole-5-carboxylate], the IC50 was 15600 nM.
`Cc1nc(-c2ccc3ccnc(NC[C@H](O)C(=O)Nc4nc(C)c(C(C)(C)C)s4)c3c2)no1` [Example 187, (S)-N-(5-(tert-butyl)-4-methylthiazol-2-yl)-2-hydroxy-3-((7-(5-methyl-1,2,4-oxadiazol-3-yl)isoquinolin-1-yl)amino)propenamide] showed an IC50 of 52 nM.
`Cc1nc(-c2ccc3ccnc(NCCC(=O)Nc4cc(C5CC5)on4)c3c2)no1` [Example 78] showed an IC50 of 1500 nM.
Compound `Cc1nc(-c2cccc(C(=O)NCCC(=O)Nc3nc(C)c(C(=O)OCC4CC4)s3)c2)no1` [Example 35, Cyclopropylmethyl 4-methyl-2-(3-(3-(5-methyl-1,2,4-oxadiazol-3-yl)benzamido)propanamido)thiazole-5-carboxylate] has an IC50 of 31 nM.
`CCCOC(=O)n1cc(NC(=O)CCNC(=O)c2cccc(-c3noc(C)n3)c2)nc1C` [Example 263] gave an IC50 of 200 nM.
In the case of `Cc1nc(-c2ccc3ccnc(NC[C@@H](O)C(=O)Nc4nc(C)c(C5(C(F)(F)F)CC5)s4)c3c2)no1` [Example 192, (R)-2-hydroxy-3-((7-(5-methyl-1,2,4-oxadiazol-3-yl)isoquinolin-1-yl)amino)-N-(4-methyl-5-(1-(trifluoromethyl)cyclopropyl)thiazol-2-yl)propanamide], the IC50 is reported as 461 nM.
`CCCOC(=O)n1cnc(NC(=O)CCNC(=O)c2cccc(-c3noc(C)n3)c2)c1` [Example 266, Propyl 4-(3-{[3-(5-methyl-1,2,4-oxadiazol-3-yl)phenyl]formamido}-propanamido)-1 H-imidazole-1-carboxylate] was tested, and the IC50 was 3400 nM.
With `CCCOC(=O)n1cc(NC(=O)CCNc2nccc3ccc(-c4cnn(C)c4)cc23)nc1C` [Example 262, Propyl 2-methyl-4-(3-{[7-(1-methyl-1 H-pyrazol-4-yl)isoquinolin-1-yl]amino}propanamido)-1 H-imidazole-1-carboxylate] the IC50 was 1000 nM.
`Cc1nc(-c2ccc3ccnc(N[C@H]4CCN(C(=O)c5cc(C(C)C)[nH]n5)C4)c3c2)no1` [Example 253, (S)-(5-isopropyl-1 H-pyrazol-3-yl)(3-((7-(5-methyl-1,2,4-oxadiazol-3-yl)isoquinolin-1-yl)amino)pyrrolidin-1-yl)methanone] was tested, and the IC50 was 3410 nM.
With `CCCc1nc(-c2cc(NC(=O)[C@@H](O)CNc3nccc4ccc(C)cc34)nn2C)no1` [Example 183, (S)-2-hydroxy-N-(1-methyl-5-(5-propyl-1,2,4-oxadiazol-3-yl)-1 H-pyrazol-3-yl)-3-((7-methylisoquinolin-1-yl)amino)propanamide] the IC50 was 17300 nM.
Compound `CCCOC(=O)c1sc(NC(=O)C[C@H](CCCN)Nc2nccc3ccc(-c4noc(C)n4)cc23)nc1C` [Example 163, Propyl (S)-2-(6-amino-3-((7-(5-methyl-1,2,4-oxadiazol-3-yl)isoquinolin-1-yl)amino)hexanamido)-4-methylthiazole-5-carboxylate] has an IC50 of 13 nM.
`CCOC(=O)c1sc(NC(=O)CCNC(=O)c2cccc(-c3nnn(C)n3)c2)nc1C` [Example 38, Ethyl 4-methyl-2-(3-(3-(2-methyl-2H-tetrazol-5-yl)benzamido)propanamido)thiazole-5-carboxylate] gave an IC50 of 27 nM.
Compound `Cc1nc(NC(=O)C[C@@H](CC#N)NC(=O)c2cccc(-c3cnn(C)c3)n2)sc1C(=O)OC(C)(C)C` [Example 212, tert-Butyl 2-[(3R)-4-cyano-3-{[6-(1-methyl-1 H-pyrazol-4-yl)pyridin-2-yl]formamido}butanamido]-4-methyl-1,3-thiazole-5-carboxylate] has an IC50 of 3350 nM.
Compound `CNCCC[C@@H](CC(=O)Nc1nc(C)c(C(=O)OC2CCCC2)s1)Nc1nccc2ccc(-c3noc(C)n3)cc12` [Example 165, Cyclopentyl (S)-4-methyl-2-(3-((7-(5-methyl-1,2,4-oxadiazol-3-yl)isoquinolin-1-yl)amino)-6-(methylamino)hexanamido)thiazole-5-carboxylate] has an IC50 of 23 nM.
`CCCOC(=O)c1sc(NC(=O)CCNC(=O)c2cccc(-c3noc(C)n3)c2)nc1C` [Example 63, Propyl 4-methyl-2-(3-(3-(5-methyl-1,2,4-oxadiazol-3-yl)benzamido)propanamido)thiazole-5-carboxylate] showed an IC50 of 11 nM.
`CCCOC(=O)c1sc(NC(=O)CCNC(=O)c2cccc(-c3noc(C)n3)n2)nc1C` [Example 276, Propyl 4-methyl-2-(3-{[6-(5-methyl-1,2,4-oxadiazol-3-yl)pyridin-2-yl]formamido}propanamido)-1,3-thiazole-5-carboxylate] showed an IC50 of 37 nM.
`CCOC(=O)c1sc(NC(=O)C[C@H](CCCN)NC(=O)c2cccc(-c3noc(C)n3)c2)nc1C` [Example 150, ethyl (S)-2-(6-amino-3-(3-(5-methyl-1,2,4-oxadiazol-3-yl)benzamido)hexanamido)-4-methylthiazole-5-carboxylate] showed an IC50 of 57 nM.
Compound `Cc1nc(-c2cccc(C(=O)NCCC(=O)Nc3nc(C)c(C(=O)OC(C)(C)C)s3)c2)no1` [Example 132, Tert-butyl-4-methyl-2-(3-(3-(5-methyl-1,2,4-oxadiazol-3-yl)benzamido)propanamido)thiazole-5-carboxylate] has an IC50 of 10 nM.
`Cc1nc(NC(=O)C[C@@H](CC#N)NC(=O)c2cccc(-c3cnn(C)c3)c2)sc1C(=O)OC(C)(C)C` [Example 202] showed an IC50 of 8850 nM.
`CCCCCc1cc(NC(=O)[C@@H](O)CNc2nccc3ccc(-c4noc(C)n4)cc23)nn1C` [Example 188, (S)-2-hydroxy-3-((7-(5-methyl-1,2,4-oxadiazol-3-yl)isoquinolin-1-yl)amino)-N-(1-methyl-5-pentyl-1 H-pyrazol-3-yl)propenamide] showed an IC50 of 270 nM.
Compound `CCCN(C)C(=O)c1sc(NC(=O)CCNc2nccc3ccc(-c4noc(C)n4)cc23)nc1C` [Example 85, N,4-dimethyl-2-[3-[[7-(5-methyl-1,2,4-oxadiazol-3-yl)-1-isoquinolyl]amino]propanoylamino]-N-propyl-thiazole-5-carboxamide] has an IC50 of 1740 nM.
With `CCOC(=O)c1sc(NC(=O)CCNC(=O)c2cccc(-n3cccn3)c2)nc1C` [Example 3, Ethyl 2-(3-(3-(1 H-pyrazol-1-yl)benzamido)propanamido)-4-methylthiazole-5-carboxylate] the IC50 was 4570 nM.
`Cc1nc(-c2ccc3ccnc(NC[C@H](O)C(=O)Nc4nc(C)c(C(=O)OC(C)(C)C)s4)c3c2)no1` [Example 180, tert-Butyl (S)-2-(2-hydroxy-3-((7-(5-methyl-1,2,4-oxadiazol-3-yl)isoquinolin-1-yl)amino)propanamido)-4-methylthiazole-5-carboxylate] was tested, and the IC50 was 2 nM.
In the case of `C=C(c1ccccc1)c1sc(NC(=O)CCNC(=O)c2cccc(-c3noc(C)n3)c2)nc1C` [Example 95, 3-(5-Methyl-1,2,4-oxadiazol-3-yl)-N-[3-[[4-methyl-5-(1-phenylvinyl)thiazol-2-yl]amino]-3-oxo-propyl]benzamide], the IC50 is reported as 823 nM.
With `CCOC(=O)c1sc(NC(=O)CCNC(=O)c2cc(Cl)cc(-c3noc(C)n3)c2)nc1C` [Example 24, Ethyl 2-(3-(3-chloro-5-(5-methyl-1,2,4-oxadiazol-3-yl)benzamido)-propanamido)-4-methylthiazole-5-carboxylate] the IC50 was 55 nM.
In the case of `Cc1nc(NC(=O)C[C@H](CC#N)Nc2nccc3ccc(C#N)cc23)sc1C(=O)OC(C)C` [Example 208, Propan-2-yl 2-[(3S)-4-cyano-3-[(7-cyanoisoquinolin-1-yl)amino]butan-amido]-4-methyl-1,3-thiazole-5-carboxylate], the IC50 is reported as 79 nM.
With `CCOC(=O)c1sc(NC(=O)CCNC(=O)c2cccc(-c3noc(C)n3)c2)cc1C` [Example 133, Ethyl-3-methyl-5-[3-[[3-(5-methyl-1,2,4-oxadiazol-3-yl)benzoyl]amino]propanoylamino]thiophene-2-carboxylate] the IC50 was 93 nM.
Compound `Cc1nc(-c2cccc(C(=O)N[C@H]3C[C@@H](C(=O)Nc4nc(C)c(C(=O)OC(C)(C)C)s4)C3)c2)no1` [Example 104, tert-Butyl 4-methyl-2-((1s,3s)-3-(3-(5-methyl-1,2,4-oxadiazol-3-yl)benzamido)cyclobutane-1-carboxamido)thiazole-5-carboxylate] has an IC50 of 93 nM.
With `CCCOC(=O)c1cc(NC(=O)CCNC(=O)c2cccc(-c3noc(C)n3)c2)nn1C` [Example 120, Propyl-1-methyl-3-(3-(3-(5-methyl-1,2,4-oxadiazol-3-yl)benzamido)propanamido)-1 H-pyrazole-5-carboxylate] the IC50 was 157 nM.
Compound `CCCCCc1cc(NC(=O)[C@H](O)CNc2nccc3ccc(-c4noc(C)n4)cc23)nn1C` [Example 189, (R)-2-hydroxy-3-((7-(5-methyl-1,2,4-oxadiazol-3-yl)isoquinolin-1-yl)amino)-N-(1-methyl-5-pentyl-1 H-pyrazol-3-yl)propenamide] has an IC50 of 616 nM.
Work on `COC(=O)c1sc(NC(=O)CCNC(=O)c2cccc(-c3noc(C)n3)c2)nc1C` [Example 62, Methyl 4-methyl-2-(3-(3-(5-methyl-1,2,4-oxadiazol-3-yl)benzamido)propanamido)thiazole-5-carboxylate] yielded an IC50 of 1210 nM.
For `CCCOC(=O)c1sc(NC(=O)C[C@H](CCCNC)Nc2nccc3ccc(-c4noc(C)n4)cc23)nc1C` [Example 172, Propyl (S)-4-methyl-2-(3-((7-(5-methyl-1,2,4-oxadiazol-3-yl)isoquinolin-1-yl)amino)-6-(methylamino)hexanamido)thiazole-5-carboxylate], the IC50 was 6 nM.
With `Cc1nc(-c2ccc3ccnc(NCCC(=O)Nc4nc(C)c(C5(C(F)(F)F)CC5)s4)c3c2)no1` [Example 52] the IC50 was 152 nM.
